Laboratory results published in patent publication US20240317721A1, “PYRAZOLYL DERIVATIVES AS INHIBITORS OF THE KRAS MUTANT PROTEIN” (NOVARTIS AG, priority 2021, published 2024).

Biological target: KRasG12C (M1-K169, biotinylated on the N-terminus) (Homo sapiens (Human), UniProt P01116, G12C)
Assay: Covalent competition assay: scintillation proximity assay (SPA) quantifying covalent modification of KRASG12C
Format: binding
Conditions: competition with radiolabeled covalent probe (Compound B/Compound A), 2 hours incubation, 10 nM KRasG12C
Summary of the method: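 Scintillation proximity readout after streptavidin bead capture (30 min) of biotinylated KRasG12C(M1-K169):GDP, 10 nM final, which was covalently labelled over 2 h by 25 nM radio-probe plus 475 nM cold probe unless blocked by compound.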

| IC50 [µM] | SMILES |
| --- | --- |
| < 0.005 | C=CC(=O)N1CC2(CC(n3nc(N4CC[C@@H](CN5CC6C5CCN6C5COC5)CC4(C)C)c(-c4c(Cl)c(Cl)cc5[nH]ncc45)c3C)C2)C1 (single isomer, unassigned) [Example 277b, 1-(6-(4-(5,6-dichloro-1H-indazol-4-yl)-3-((R)-2,2-dimethyl-4-(((1S*,5S*)-2-(oxetan-3-yl)-2,6-diazabicyclo[3.2.0]heptan-6-yl)methyl)piperidin-1-yl)-5-methyl-1H-pyrazol-1-yl)-2-azaspiro[3.3]heptan-2-yl)prop-2-en-1-one] |
| 0.046 | C=CC(=O)N1CC2(CC(n3nc(N4CCN(C5CCOCC5)C[C@]4(C)C(F)F)c(-c4c(Cl)c(C)cc5[nH]ncc45)c3C)C2)C1 (single isomer, unassigned) [Example 151a] |
| > 5 | C=CC(=O)N1CC2(CC(n3nc(N4CCC(N5C[C@H](OC)[C@H](OC)C5)CC4(C)C)c(-c4c(Cl)c(C)cc5[nH]ncc45)c3C)C2)C1 (single isomer, unassigned) [Example 102a] |
| 1.1 | C=CC(=O)N1CC2(CC(n3nc(N4CC[C@@H](CN5CC(O)C(OC)C5)CC4(C)C)c(-c4c(Cl)c(Cl)cc5[nH]ncc45)c3C)C2)C1 (single isomer, unassigned) [Example 273a, 1-(6-(4-(5,6-dichloro-1H-indazol-4-yl)-3-((R)-4-(((3S*,4S*)-3-hydroxy-4-methoxypyrrolidin-1-yl)methyl)-2,2-dimethylpiperidin-1-yl)-5-methyl-1H-pyrazol-1-yl)-2-azaspiro[3.3]heptan-2-yl)prop-2-en-1-one] |
| > 5 | C=CC(=O)N1CC2(CC(n3nc(N4CCC5(CN(C6COC6)C5)CC45CCC5)c(-c4c(Cl)c(C)cc5[nH]ncc45)c3C)C2)C1 (single isomer, unassigned) [Example 93a, 1-(6-(4-(5-chloro-6-methyl-1H-indazol-4-yl)-5-methyl-3-(2-(oxetan-3-yl)-2,10-diazadispiro[3.1.3^6.3^4]dodecan-10-yl)-1H-pyrazol-1-yl)-2-azaspiro[3.3]heptan-2-yl)prop-2-en-1-one] |
| 0.015 | C=CC(=O)N1CC2(CC(n3nc(N4CC[C@@H](CN5CCCC6CN(C)C(=O)C65)CC4(C)C)c(-c4c(Cl)c(Cl)cc5[nH]ncc45)c3C)C2)C1 (single isomer, unassigned) [Example 261b, (4aR*,7aR*)-1-(((R)-1-(1-(2-acryloyl-2-azaspiro[3.3]heptan-6-yl)-4-(5,6-dichloro-1H-indazol-4-yl)-5-methyl-1H-pyrazol-3-yl)-2,2-dimethylpiperidin-4-yl)methyl)-6-methyloctahydro-7H-pyrrolo[3,4-b]pyridin-7-one] |
| 20.8 | C=CC(=O)N1CC2(CC(n3nc(N4CCN(c5cnn(C)c5)CC4(C)C)c(-c4c(Cl)c(C)cc5[nH]ncc45)c3C)C2)C1 (single isomer, unassigned) [Example 193a, 1-(6-(4-(5-Chloro-6-methyl-1H-indazol-4-yl)-3-(2,2-dimethyl-4-(1-methyl-1H-pyrazol-4-yl)piperazin-1-yl)-5-methyl-1H-pyrazol-1-yl)-2-azaspiro[3.3]heptan-2-yl)prop-2-en-1-one] |
| 0.795 | C=CC(=O)N1CC2(CC(n3nc(N4CC[C@@H](CN5CC(O)C(OC)C5)CC4(C)C)c(-c4c(Cl)c(Cl)cc5[nH]ncc45)c3C)C2)C1 (single isomer, unassigned) [Example 274a, 1-(6-(4-(5,6-dichloro-1H-indazol-4-yl)-3-((R)-4-(((3S*,4S*)-3-hydroxy-4-methoxypyrrolidin-1-yl)methyl)-2,2-dimethylpiperidin-1-yl)-5-methyl-1H-pyrazol-1-yl)-2-azaspiro[3.3]heptan-2-yl)prop-2-en-1-one] |
| 0.035 | C=CC(=O)N1CC2(CC(n3nc(N4CCN(C(=O)OC)CC4(C)C)c(-c4c(Cl)c(C)cc5[nH]ncc45)c3C)C2)C1 (single isomer, unassigned) [Example 125b, methyl 4-(1-(2-acryloyl-2-azaspiro[3.3]heptan-6-yl)-4-(5-chloro-6-methyl-1H-indazol-4-yl)-5-methyl-1H-pyrazol-3-yl)-3,3-dimethylpiperazine-1-carboxylate] |
| 0.17 | C=CC(=O)N1CC2(CC(n3nc(N4CCN(S(C)(=O)=O)CC4(C)C)c(-c4c(Cl)c(C)cc5[nH]ncc45)c3C)C2)C1 (single isomer, unassigned) [Example 126b, 1-(6-(4-(5-chloro-6-methyl-1H-indazol-4-yl)-3-(2,2-dimethyl-4-(methylsulfonyl)piperazin-1-yl)-5-methyl-1H-pyrazol-1-yl)-2-azaspiro[3.3]heptan-2-yl)prop-2-en-1-one] |
| > 50 | C=CC(=O)N1CC2(CC(n3nc(N4CCN(C(C)=O)CC4)c(-c4c(Cl)ccc5[nH]ncc45)c3C)C2)C1C (single isomer, unassigned) [Example 195b, 1-(6-(3-(4-Acetylpiperazin-1-yl)-4-(5-chloro-1H-indazol-4-yl)-5-methyl-1H-pyrazol-1-yl)-1-methyl-2-azaspiro[3.3]heptan-2-yl)prop-2-en-1-one] |
| 1.5 | C=CC(=O)N1CC2(CC(n3nc(N4CCN(CC5COCCOC5)C[C@]4(C)CC)c(-c4c(Cl)c(C)cc5[nH]ncc45)c3C)C2)C1 (single isomer, unassigned) [Example 186a] |
| 0.018 | C=CC(=O)N1CC2(CC(n3nc(N4CCN(C5COC5)CC45CCC5)c(-c4c(C)c(Cl)cc5[nH]ncc45)c3C)C2)C1 (single isomer, unassigned) [Example 79b, 1-(6-(4-(6-chloro-5-methyl-1H-indazol-4-yl)-5-methyl-3-(8-(oxetan-3-yl)-5,8-diazaspiro[3.5]nonan-5-yl)-1H-pyrazol-1-yl)-2-azaspiro[3.3]heptan-2-yl)prop-2-en-1-one] |
| 0.005 | C=CC(=O)N1CC2(CC(n3nc(N4CCN(C[C@@H]5COCCO5)C[C@]4(C)CC)c(-c4c(Cl)c(C)cc5[nH]ncc45)c3C)C2)C1 (single isomer, unassigned) [Example 173b] |
| 0.061 | C=C(F)C(=O)N1CC2(CC(n3nc(N4CCN(C[C@@H]5COCCO5)C[C@]4(C)COC)c(-c4c(Cl)c(Cl)cc5[nH]ncc45)c3C)C2)C1 (single isomer, unassigned) [Example 184b] |
| 0.341 | C=CC(=O)N1CC2(CC(n3nc(N4CC[C@@H](CN5CCOCC5)CC4(C)C)c(-c4c(Cl)c(C)cc5[nH]nc(C)c45)c3C#N)C2)C1 (single isomer, unassigned) [Example 225a] |
| 0.392 | C=CC(=O)N1CC2(CC(n3nc(N4CC[C@@H](CN5CC6(C5)CN(C)C(=O)N6C)CC4(C)C)c(-c4c(Cl)c(Cl)cc5[nH]ncc45)c3C)C2)C1 (single isomer, unassigned) [Example 296a] |
| 3.1 | C=CC(=O)N1CC2(CC(n3nc(N4CCC(N5CCOCC5)CC45CCC5)c(-c4c(Cl)c(C)cc5[nH]ncc45)c3C)C2)C1 (single isomer, unassigned) [Example 63b, 1-(6-(4-(5-chloro-6-methyl-1H-indazol-4-yl)-5-methyl-3-(8-morpholino-5-azaspiro[3.5]nonan-5-yl)-1H-pyrazol-1-yl)-2-azaspiro[3.3]heptan-2-yl)prop-2-en-1-one] |
| 0.005 | C=CC(=O)N1CC2(CC(n3nc(N4CCC(CN5CCOCC5)CC4(C)COC)c(-c4c(Cl)c(Cl)cc5[nH]ncc45)c3C)C2)C1 (single isomer, unassigned) [Example 221a, 1-(6-(4-(5,6-dichloro-1H-indazol-4-yl)-3-(2-(methoxymethyl)-2-methyl-4-(morpholinomethyl)piperidin-1-yl)-5-methyl-1H-pyrazol-1-yl)-2-azaspiro[3.3]heptan-2-yl)prop-2-en-1-one] |
| 0.027 | C=CC(=O)N1CC2(CC(n3nc(N4CC[C@@H](CN5CCOC[C@@H](O)C5)CC4(C)C)c(-c4c(Cl)c(Cl)cc5[nH]ncc45)c3C)C2)C1 (single isomer, unassigned) [Example 292b] |
| 1.1 | C=CC(=O)N1CC2(CC(n3nc(N4CCC(CN5CCOCC5)CC4(C)CC)c(-c4c(Cl)c(C)cc5[nH]ncc45)c3C)C2)C1 (single isomer, unassigned) [Example 222a, 1-(6-(4-(5-chloro-6-methyl-1H-indazol-4-yl)-3-(2-ethyl-2-methyl-4-(morpholinomethyl)piperidin-1-yl)-5-methyl-1H-pyrazol-1-yl)-2-azaspiro[3.3]heptan-2-yl)prop-2-en-1-one] |
| > 5 | C=CC(=O)N1CC2(CC(n3nc(N4CCN(C5COC5)CC45CCOC5)c(-c4c(Cl)c(C)cc5[nH]ncc45)c3C)C2)C1 (centres unmarked) [Example 142b, 1-(6-(4-(5-chloro-6-methyl-1H-indazol-4-yl)-5-methyl-3-(9-(oxetan-3-yl)-2-oxa-6,9-diazaspiro[4.5]decan-6-yl)-1H-pyrazol-1-yl)-2-azaspiro[3.3]heptan-2-yl)prop-2-en-1-one] |
| 0.036 | C=CC(=O)N1CC2(CC(n3nc(N4CC=C(CN5CCOCC5)CC4(C)C)c(-c4c(Cl)c(Cl)cc5[nH]ncc45)c3C)C2)C1 (single isomer, unassigned) [Example 220b, 1-(6-(4-(5,6-dichloro-1H-indazol-4-yl)-3-(2,2-dimethyl-4-(morpholinomethyl)-3,6-dihydropyridin-1(2H)-yl)-5-methyl-1H-pyrazol-1-yl)-2-azaspiro[3.3]heptan-2-yl)prop-2-en-1-one] |
| 5 | C=CC(=O)N1CC2(CC(n3nc(N4CC[C@@H](CN5CCOC[C@@H]5CO)CC4(C)C)c(-c4c(Cl)c(Cl)cc5[nH]ncc45)c3C)C2)C1 (single isomer, unassigned) [Example 303a] |
| 0.818 | C=CC(=O)N1CC2(CC(n3nc(N4CCN(C[C@@H]5COCCO5)C[C@]4(C)COC)c(-c4c(Cl)c(C)cc5[nH]nc(N)c45)c3C)C2)C1 (single isomer, unassigned) [Example 118b] |
| 0.007 | C=CC(=O)N1CC2(CC(n3nc(N4CC[C@@H](CN5CCCN(C(C)=O)CC5)CC4(C)C)c(-c4c(Cl)c(Cl)cc5[nH]ncc45)c3C)C2)C1 (single isomer, unassigned) [Example 315b] |
